Our source for the AC50 values is ChEMBL document CHEMBL5291721, “A preclinical secondary pharmacology resource illuminates target-adverse drug reaction associations of marketed drugs” (Nat Commun, 2023).

Molecules are shown by their SMILES.

Among the targets are Mu-type opioid receptor (Homo sapiens, UniProt P35372); Melanocortin receptor 4 (Homo sapiens, UniProt P32245); Cannabinoid receptor 1 (Homo sapiens, UniProt P21554).
The next assay addresses T1, Thromboxane A2 receptor (Homo sapiens, UniProt P21731).
T1 sequence (P21731 whole entry): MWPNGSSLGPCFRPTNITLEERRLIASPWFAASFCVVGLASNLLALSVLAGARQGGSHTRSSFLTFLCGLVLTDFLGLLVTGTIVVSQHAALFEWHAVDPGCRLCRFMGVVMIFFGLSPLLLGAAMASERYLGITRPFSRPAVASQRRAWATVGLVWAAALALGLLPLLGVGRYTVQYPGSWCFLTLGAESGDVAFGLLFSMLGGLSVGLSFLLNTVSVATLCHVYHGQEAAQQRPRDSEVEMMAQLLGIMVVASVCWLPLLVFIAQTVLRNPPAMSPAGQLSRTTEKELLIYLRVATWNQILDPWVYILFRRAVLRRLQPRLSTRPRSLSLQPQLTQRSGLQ

The target of assay [1] is T2, Alpha-1A adrenergic receptor (Homo sapiens, UniProt P35348).
T2 sequence (P35348 whole entry): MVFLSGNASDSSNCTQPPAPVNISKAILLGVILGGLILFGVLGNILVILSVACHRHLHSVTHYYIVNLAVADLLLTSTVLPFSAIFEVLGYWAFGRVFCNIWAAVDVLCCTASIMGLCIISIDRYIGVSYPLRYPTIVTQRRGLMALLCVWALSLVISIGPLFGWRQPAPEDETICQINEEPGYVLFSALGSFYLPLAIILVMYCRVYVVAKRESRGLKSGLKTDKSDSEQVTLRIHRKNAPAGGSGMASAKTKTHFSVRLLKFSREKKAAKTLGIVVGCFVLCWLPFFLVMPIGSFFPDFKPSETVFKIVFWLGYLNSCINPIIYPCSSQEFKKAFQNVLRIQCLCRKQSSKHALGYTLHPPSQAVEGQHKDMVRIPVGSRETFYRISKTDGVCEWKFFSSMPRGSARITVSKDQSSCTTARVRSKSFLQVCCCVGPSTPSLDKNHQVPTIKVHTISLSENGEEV
Type of assay: functional, cell-based.

Assay [2] has as its target T2, Alpha-1A adrenergic receptor.
Assay [3] addresses T3, Alpha-2A adrenergic receptor (Homo sapiens, UniProt P08913).
T3 sequence (P08913 whole entry): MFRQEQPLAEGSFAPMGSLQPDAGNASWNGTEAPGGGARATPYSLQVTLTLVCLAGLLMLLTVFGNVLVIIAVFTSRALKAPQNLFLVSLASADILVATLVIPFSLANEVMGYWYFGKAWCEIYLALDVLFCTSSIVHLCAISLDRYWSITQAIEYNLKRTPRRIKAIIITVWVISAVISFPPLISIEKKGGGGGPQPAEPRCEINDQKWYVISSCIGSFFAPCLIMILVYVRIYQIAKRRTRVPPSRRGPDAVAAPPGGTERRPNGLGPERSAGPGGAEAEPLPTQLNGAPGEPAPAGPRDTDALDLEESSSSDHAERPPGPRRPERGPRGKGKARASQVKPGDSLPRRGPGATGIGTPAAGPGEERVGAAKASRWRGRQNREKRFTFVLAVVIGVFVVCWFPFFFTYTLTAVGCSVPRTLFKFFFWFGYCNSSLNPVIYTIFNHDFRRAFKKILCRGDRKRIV
The assay is classed as functional, cell-based.

For assay [4], the target named is Beta-2 adrenergic receptor (Homo sapiens, UniProt P07550). Type of assay: functional, cell-based.
For assay [5], the target named is Kappa-type opioid receptor (Homo sapiens, UniProt P41145).
The target of assay [6] is T4, 5-hydroxytryptamine receptor 2B (Homo sapiens, UniProt P41595). Type of assay: functional, cell-based.
The target in the next assay is T5, B2 bradykinin receptor (Homo sapiens, UniProt P30411).
T5 sequence (P30411 whole entry): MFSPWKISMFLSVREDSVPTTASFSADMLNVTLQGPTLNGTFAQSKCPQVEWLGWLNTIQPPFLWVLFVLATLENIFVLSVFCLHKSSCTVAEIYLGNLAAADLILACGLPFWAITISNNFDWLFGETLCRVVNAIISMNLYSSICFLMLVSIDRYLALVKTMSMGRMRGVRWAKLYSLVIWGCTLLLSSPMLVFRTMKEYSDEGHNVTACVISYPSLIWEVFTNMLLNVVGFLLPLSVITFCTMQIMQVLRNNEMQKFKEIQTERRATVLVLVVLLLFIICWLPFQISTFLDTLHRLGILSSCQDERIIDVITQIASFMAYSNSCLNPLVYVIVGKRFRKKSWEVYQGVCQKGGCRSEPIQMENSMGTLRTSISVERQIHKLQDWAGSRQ

Assay [7] concerns the target T4, 5-hydroxytryptamine receptor 2B.
Further: assay procedure not described here.

Sequence of Kappa-type opioid receptor (P41145 whole entry): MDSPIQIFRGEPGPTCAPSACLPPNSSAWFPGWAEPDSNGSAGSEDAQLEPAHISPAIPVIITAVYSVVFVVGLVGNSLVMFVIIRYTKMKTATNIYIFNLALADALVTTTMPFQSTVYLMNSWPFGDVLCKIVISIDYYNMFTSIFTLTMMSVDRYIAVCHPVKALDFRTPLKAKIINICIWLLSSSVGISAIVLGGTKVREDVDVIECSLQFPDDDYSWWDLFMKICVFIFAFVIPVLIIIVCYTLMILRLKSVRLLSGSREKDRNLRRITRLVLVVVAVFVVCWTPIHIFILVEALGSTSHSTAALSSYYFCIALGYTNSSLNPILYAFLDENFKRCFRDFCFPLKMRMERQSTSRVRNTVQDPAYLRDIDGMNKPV
Sequence of Cannabinoid receptor 1 (P21554 whole entry): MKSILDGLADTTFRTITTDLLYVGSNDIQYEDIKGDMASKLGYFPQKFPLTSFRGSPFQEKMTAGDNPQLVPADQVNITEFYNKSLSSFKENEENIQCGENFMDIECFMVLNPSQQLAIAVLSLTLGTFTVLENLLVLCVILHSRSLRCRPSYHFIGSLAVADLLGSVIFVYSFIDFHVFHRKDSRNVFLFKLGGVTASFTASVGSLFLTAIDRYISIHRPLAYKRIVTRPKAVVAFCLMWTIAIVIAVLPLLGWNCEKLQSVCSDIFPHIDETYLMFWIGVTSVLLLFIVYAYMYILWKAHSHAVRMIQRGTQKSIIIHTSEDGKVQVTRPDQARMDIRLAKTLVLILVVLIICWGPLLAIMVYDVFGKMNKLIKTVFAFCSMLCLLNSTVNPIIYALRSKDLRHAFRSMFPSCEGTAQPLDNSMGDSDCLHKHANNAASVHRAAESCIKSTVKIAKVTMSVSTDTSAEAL
Sequence of Beta-2 adrenergic receptor (P07550 whole entry): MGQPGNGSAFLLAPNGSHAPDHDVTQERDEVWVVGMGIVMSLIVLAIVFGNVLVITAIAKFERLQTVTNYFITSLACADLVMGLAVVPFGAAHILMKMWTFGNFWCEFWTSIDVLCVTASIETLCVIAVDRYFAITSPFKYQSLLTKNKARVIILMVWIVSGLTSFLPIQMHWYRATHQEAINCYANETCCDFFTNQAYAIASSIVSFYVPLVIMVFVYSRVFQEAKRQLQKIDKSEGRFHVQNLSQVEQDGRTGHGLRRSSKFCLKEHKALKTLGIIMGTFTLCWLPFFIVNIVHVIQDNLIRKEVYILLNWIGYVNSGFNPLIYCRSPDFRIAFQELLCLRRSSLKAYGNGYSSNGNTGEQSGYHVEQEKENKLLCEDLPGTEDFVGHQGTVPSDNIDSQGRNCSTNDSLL
Sequence of Melanocortin receptor 4 (P32245 whole entry): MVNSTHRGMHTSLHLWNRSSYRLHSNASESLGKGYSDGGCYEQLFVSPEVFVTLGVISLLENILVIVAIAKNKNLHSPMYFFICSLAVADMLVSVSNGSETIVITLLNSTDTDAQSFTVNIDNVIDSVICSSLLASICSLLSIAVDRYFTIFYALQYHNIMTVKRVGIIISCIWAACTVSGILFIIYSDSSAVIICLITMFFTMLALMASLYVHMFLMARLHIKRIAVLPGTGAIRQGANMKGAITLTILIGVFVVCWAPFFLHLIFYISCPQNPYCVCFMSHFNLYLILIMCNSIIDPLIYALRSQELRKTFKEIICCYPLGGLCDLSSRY
T4 sequence (P41595 whole entry): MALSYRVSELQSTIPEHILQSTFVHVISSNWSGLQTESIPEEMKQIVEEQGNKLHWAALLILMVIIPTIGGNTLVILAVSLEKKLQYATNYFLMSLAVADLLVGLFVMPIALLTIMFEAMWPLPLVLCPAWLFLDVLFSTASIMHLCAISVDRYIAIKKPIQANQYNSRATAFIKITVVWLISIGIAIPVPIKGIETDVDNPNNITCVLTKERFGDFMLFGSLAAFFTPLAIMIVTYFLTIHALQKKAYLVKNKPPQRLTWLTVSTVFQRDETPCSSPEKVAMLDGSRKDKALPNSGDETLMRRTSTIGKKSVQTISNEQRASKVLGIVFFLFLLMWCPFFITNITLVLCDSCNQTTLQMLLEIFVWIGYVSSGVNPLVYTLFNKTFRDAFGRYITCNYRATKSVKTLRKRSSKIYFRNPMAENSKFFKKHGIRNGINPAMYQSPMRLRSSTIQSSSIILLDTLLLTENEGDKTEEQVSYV
Sequence of Mu-type opioid receptor (P35372 whole entry): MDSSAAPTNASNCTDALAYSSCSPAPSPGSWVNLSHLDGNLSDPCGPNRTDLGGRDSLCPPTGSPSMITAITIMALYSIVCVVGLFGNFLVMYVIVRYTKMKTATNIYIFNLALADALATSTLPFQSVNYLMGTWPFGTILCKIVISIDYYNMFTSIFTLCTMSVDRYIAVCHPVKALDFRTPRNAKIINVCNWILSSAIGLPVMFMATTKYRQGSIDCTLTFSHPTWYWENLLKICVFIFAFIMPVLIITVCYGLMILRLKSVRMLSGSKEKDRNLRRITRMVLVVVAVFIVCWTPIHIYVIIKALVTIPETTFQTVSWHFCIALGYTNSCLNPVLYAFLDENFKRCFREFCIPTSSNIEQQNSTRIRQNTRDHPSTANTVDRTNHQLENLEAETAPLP

As usually defined, the AC50 is the concentration giving half of the maximal activity seen. The low end stands for activity at low concentration, the high end for activity only at high concentration. On to `CC(=O)O[C@H]1CC[C@@]2(C)C(=CC[C@@H]3[C@@H]2CC[C@]2(C)C(c4cccnc4)=CC[C@@H]32)C1` [ABIRATERONE ACETATE], for which the AC50 at Thromboxane A2 receptor is more than 30 µM; in assay [1], more than 30 µM; in [2], more than 10 µM; in assay [3], more than 30 µM; at Mu-type opioid receptor it was more than 30 µM; in [4], more than 30 µM.

In the case of `NCC(=O)CCC(=O)O` [AMINOLEVULINIC ACID], the AC50 (on Thromboxane A2 receptor; in assay [5]; in assay [1]; in [6]; at B2 bradykinin receptor; in [3]) was more than 30 µM each time. Also, the AC50 (at Mu-type opioid receptor; in [4]) was more than 30 µM throughout.

With `COc1ccccc1OCCNCC(O)c1ccc(C)c(S(N)(=O)=O)c1` (centres undefined) [AMOSULALOL], the AC50 at Thromboxane A2 receptor was more than 30 µM; in [5], more than 30 µM; in assay [1], 0.24 µM; in assay [6], more than 30 µM; in [7], more than 30 µM; on B2 bradykinin receptor it was more than 30 µM. Besides, the results for the AC50 in assay [2] and in assay [3] were 0.3 µM and more than 30 µM, respectively.

With `COc1ccc2c3c1O[C@H]1[C@@H](O)C=C[C@H]4[C@@H](C2)N(C)CC[C@@]341` [CODEINE], the AC50 was more than 30 µM on Thromboxane A2 receptor; more than 30 µM in assay [1]; more than 10 µM in [6]; more than 10 µM in assay [7]; more than 30 µM at B2 bradykinin receptor; more than 30 µM at Melanocortin receptor 4. The half-maximal activity concentration (AC50) (in assay [2]; in assay [3]; on Cannabinoid receptor 1) was more than 10 µM in each case.

On to `C#C[C@]1(O)CC[C@H]2[C@@H]3CCC4=Cc5oncc5C[C@]4(C)[C@H]3CC[C@@]21C` [DANAZOL], for which the AC50 is more than 10 µM at Thromboxane A2 receptor; more than 10 µM in assay [5]; more than 30 µM in assay [1]; more than 10 µM in [6]; more than 10 µM at B2 bradykinin receptor; more than 10 µM at Melanocortin receptor 4. Further, the AC50 in assay [2] is more than 10 µM; in assay [3], more than 10 µM; on Cannabinoid receptor 1, more than 10 µM; on Mu-type opioid receptor, more than 30 µM; in assay [4], more than 30 µM.

`CC1(C)O[C@@H]2C[C@H]3[C@@H]4CCC5=CC(=O)C=C[C@]5(C)[C@H]4[C@@H](O)C[C@]3(C)[C@]2(C(=O)CO)O1` [DESONIDE]: the AC50 is more than 10 µM at Thromboxane A2 receptor; more than 10 µM in assay [5]; more than 30 µM in [1]; more than 10 µM in [6]; more than 10 µM on B2 bradykinin receptor; more than 10 µM on Melanocortin receptor 4. Also, the half-maximal activity concentration (AC50) in [2] was more than 10 µM; in assay [3] it was more than 10 µM; on Cannabinoid receptor 1, more than 10 µM; on Mu-type opioid receptor it was more than 30 µM; in assay [4] it was more than 30 µM.

Consider `CCCCCCOc1ccccc1C(N)=O` [EXALAMIDE], for which the concentration at half-maximal activity (AC50) was more than 30 µM on Thromboxane A2 receptor; 9.3 µM in [5]; more than 30 µM in [1]; more than 30 µM in assay [6]; 0.27 µM in assay [7]; more than 30 µM at B2 bradykinin receptor. The same compound returned an AC50 in assay [3] of 13 µM.

Turning to `CCc1c(Cl)c(O)c(Cl)c(O)c1C(=O)O[C@H]1[C@H](O)[C@H](OC)[C@H](OC/C2=C\C=C\C[C@H](O)/C(C)=C/[C@H](CC)[C@@H](O[C@@H]3OC(C)(C)[C@@H](OC(=O)C(C)C)[C@H](O)[C@@H]3O)/C(C)=C/C(C)=C/C[C@@H]([C@@H](C)O)OC2=O)O[C@@H]1C` [FIDAXOMICIN], the half-maximal activity concentration (AC50) at Thromboxane A2 receptor is more than 30 µM; in [5], more than 10 µM; in [6], more than 30 µM; in assay [7] it was more than 10 µM; on B2 bradykinin receptor it was more than 30 µM; at Melanocortin receptor 4, more than 30 µM. Besides, the AC50 on Cannabinoid receptor 1 and at Mu-type opioid receptor was more than 10 µM each time.

For the compound `CC(C)(C)c1cc(C(C)(C)C)c(NC(=O)c2c[nH]c3ccccc3c2=O)cc1O` [IVACAFTOR], the half-maximal activity concentration (AC50) at Thromboxane A2 receptor was 22 µM; in assay [5] it was more than 10 µM; in [6], more than 10 µM; in assay [7], more than 10 µM; at B2 bradykinin receptor, more than 30 µM; at Melanocortin receptor 4, 25.6 µM. Further, the half-maximal activity concentration (AC50) is more than 10 µM in assay [2], more than 10 µM in assay [3], more than 10 µM on Cannabinoid receptor 1 and more than 30 µM on Mu-type opioid receptor.

`CCOC(=O)[N-]c1cn(N2CCOCC2)n[o+]1` [MOLSIDOMINE]: the AC50 (at Thromboxane A2 receptor; in [5]; in assay [1]; in assay [6]; at B2 bradykinin receptor; in [3]) was more than 30 µM throughout. The AC50 in [4] was more than 30 µM.

Take `CCCc1nc(C(C)(C)O)c(C(=O)OCc2oc(=O)oc2C)n1Cc1ccc(-c2ccccc2-c2nnn[nH]2)cc1` [OLMESARTAN MEDOXOMIL]: the AC50 on Thromboxane A2 receptor is more than 50 µM; in assay [5], more than 10 µM; in assay [1], more than 30 µM; in assay [6] it was more than 10 µM; in [7] it was more than 10 µM; on B2 bradykinin receptor it was more than 30 µM. Besides, the AC50 is more than 50 µM on Melanocortin receptor 4, more than 10 µM in [2], more than 10 µM in [3] and more than 10 µM on Mu-type opioid receptor.

In the case of `N#Cc1ccc([C@H]2CCc3cncn32)c(F)c1` [OSILODROSTAT], the AC50 (on Thromboxane A2 receptor; in assay [5]; in assay [7]; on Melanocortin receptor 4; on Cannabinoid receptor 1; on Mu-type opioid receptor) was more than 10 µM each time.

Take `CN1CCC(=C2c3ccccc3CCc3sccc32)CC1` [PIZOTYLINE]: the AC50 at Thromboxane A2 receptor is more than 30 µM; in [5], 1.57 µM; in [1], 3.32 µM; in assay [6] it was more than 30 µM; on B2 bradykinin receptor it was more than 30 µM; on Melanocortin receptor 4 it was more than 30 µM. The concentration at half-maximal activity (AC50) in [3] was more than 30 µM; on Cannabinoid receptor 1, 1.66 µM; on Mu-type opioid receptor, more than 10 µM; in assay [4] it was more than 30 µM.

Take `C/C(O)=C(\C#N)C(=O)Nc1ccc(C(F)(F)F)cc1` [TERIFLUNOMIDE]: the AC50 in assay [1] is 21 µM; in [6], more than 30 µM; in assay [3], more than 30 µM; on Mu-type opioid receptor it was more than 30 µM; in assay [4] it was more than 30 µM.

For the compound `CN1CCN(CC/C=C2/c3ccccc3Sc3ccc(S(=O)(=O)N(C)C)cc32)CC1` [THIOTHIXENE], the AC50 is more than 30 µM on Thromboxane A2 receptor; 11.6 µM in assay [5]; 0.31 µM in [1]; more than 10 µM in assay [6]; 0.857 µM in assay [7]; more than 30 µM on B2 bradykinin receptor. Further, the AC50 was more than 30 µM on Melanocortin receptor 4, 0.0244 µM in [2], more than 10 µM in [3] and more than 10 µM at Mu-type opioid receptor.

Regarding `COc1cc2c(N)nc(N3CCN(C(=O)OCC(C)(C)O)CC3)nc2c(OC)c1OC` [TRIMAZOSIN], the AC50 was more than 30 µM at Thromboxane A2 receptor; more than 30 µM in assay [5]; 1.2 µM in assay [1]; more than 30 µM in assay [6]; more than 30 µM on B2 bradykinin receptor; 1.8 µM in assay [2]. The AC50 in [3] and in [4] was more than 30 µM throughout.
